Measurements taken from patent US7282491B2, “Prokaryotic proteasomal proteases of Mycobacterium tuberculosis (MTB) as targets for antibiotic therapy” (Cornell Research Foundation, Inc., priority 2002, dated 2007).

Assays:
[1] = test system: Rv2115c and Rv2097c mutants; assay type: cell-based, Mycobacterium tuberculosis
[2] = test system: Rv2115c-mutant Mtb

In the case of `CC(C)C[C@H](NC(=O)[C@H](Cc1cccc2ccccc12)NC(=O)N1CCOCC1)B(O)O` [MLN-273, N-[4-morpholine]carbonyl-β-[1-naphthyl]-L-alanine-L-leucine boronic acid], the “growth of Rv2115c and Rv2097c mutants under standard culture conditions” value [1] is reported as “suppressed the growth of these mutants to same extent as for wt Mtb” and the “augmentation of the toxicity of nitrite against the Rv2115c mutant” value [2] is reported as “augmented the toxicity of nitrite against the Rv2115c mutant”.
